Measurements as given in ChEMBL document CHEMBL1201862, “PubChem BioAssay data set” (2004).
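Cells were grown in 96-well plates and exposed to each compound for 48 hours at five concentrations; endpoints were interpolated linearly between bracketing concentrations, or set to the highest concentration if not reached. GI50: concentration for 50% inhibition of growth.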 Activity calls are given as the source filed them. No stated cut-off is given here; in the data, active = GI50 up to about 1.1 µM and inactive = higher.

Experiments:
Test in all cases: inhibition of tumour cell growth, NCI panel, 48 h
HCT-116 = system: HCT-116
SNB-75 = system: SNB-75
SW-620 = system: SW-620
COLO 205 = system: COLO 205
HT-29 = system: HT-29
NCI-H23 = system: NCI-H23
SF-295 = system: SF-295
UO-31 = system: UO-31
HCT-15 = system: HCT-15
OVCAR-8 = system: OVCAR-8
SK-MEL-28 = system: SK-MEL-28
HL-60 = system: HL-60
RXF 393 = system: RXF 393
HOP-62 = system: HOP-62
Hs-578T = system: Hs-578T
DU-145 = system: DU-145
Malme-3M = system: Malme-3M
SR = system: SR
CAKI-1 = system: CAKI-1
BT-549 = system: BT-549

Structure (SMILES) | GI50 (HCT-116) | GI50 (SNB-75) | GI50 (SW-620) | GI50 (COLO 205) | GI50 (HT-29) | GI50 (NCI-H23) | GI50 (SF-295) | GI50 (UO-31) | GI50 (HCT-15) | GI50 (OVCAR-8) | GI50 (SK-MEL-28) | GI50 (HL-60) | GI50 (RXF 393) | GI50 (HOP-62) | GI50 (Hs-578T) | GI50 (DU-145) | GI50 (Malme-3M) | GI50 (SR) | GI50 (CAKI-1) | GI50 (BT-549)
CN1N=C(c2ccncc2)OC1c1ccc(C(F)(F)F)cc1 (stereo not drawn) | > 100 µM (inactive) | 0.491 µM (active) | > 100 µM (inactive) | > 100 µM (inactive) | > 100 µM (inactive) | > 100 µM (inactive) | > 100 µM (inactive) | > 100 µM (inactive) | > 100 µM | > 100 µM (inactive) | > 100 µM (inactive) | > 100 µM (inactive) | > 100 µM (inactive) | 82.8 µM (inactive) | > 100 µM (inactive) | > 100 µM (inactive) |  |  |  | 
CN(CC(=O)O)c1ncc2c(n1)-c1ccccc1SC2 | > 100 µM (inactive) | > 100 µM (inactive) | > 100 µM (inactive) | > 100 µM (inactive) | > 100 µM (inactive) | > 100 µM (inactive) | > 100 µM (inactive) | > 100 µM (inactive) | > 100 µM | > 100 µM (inactive) | > 100 µM (inactive) | > 100 µM (inactive) |  |  | > 100 µM (inactive) | > 100 µM (inactive) | 50.1 µM (inactive) | 92.3 µM (inactive) | > 100 µM (inactive) | 
OC(c1nc2ccccc2s1)(C(F)(F)F)C(F)(F)F | > 100 µM (inactive) | > 100 µM (inactive) | > 100 µM (inactive) | > 100 µM (inactive) | > 100 µM (inactive) | > 100 µM (inactive) | > 100 µM (inactive) | 87.1 µM (inactive) | > 100 µM | > 100 µM (inactive) | > 100 µM (inactive) | > 100 µM (inactive) | > 100 µM (inactive) | > 100 µM (inactive) | > 100 µM (inactive) | > 100 µM (inactive) | > 100 µM (inactive) |  | > 100 µM (inactive) | 
Cc1cc(O)nc(NNC(C#N)c2cccc(O)c2)n1 (stereo not drawn) | > 100 µM (inactive) | > 100 µM (inactive) | > 100 µM (inactive) | > 100 µM (inactive) | > 100 µM (inactive) | > 100 µM (inactive) | > 100 µM (inactive) | > 100 µM (inactive) | > 100 µM | > 100 µM (inactive) | > 100 µM (inactive) | > 100 µM (inactive) | > 100 µM (inactive) | > 100 µM (inactive) |  |  | 79.1 µM (inactive) | > 100 µM (inactive) | > 100 µM (inactive) | 
O=S(=O)(O)CCSSCCS(=O)(=O)O | > 1000 µM (inactive) | > 1000 µM (inactive) | > 1000 µM (inactive) | > 1000 µM (inactive) | > 1000 µM (inactive) | > 1000 µM (inactive) | > 1000 µM (inactive) | > 1000 µM (inactive) | > 1000 µM | > 1000 µM (inactive) | > 1000 µM (inactive) | > 1000 µM (inactive) | > 1000 µM (inactive) | > 1000 µM (inactive) |  | > 1000 µM (inactive) | > 1000 µM (inactive) | > 1000 µM (inactive) | > 1000 µM (inactive) | > 1000 µM (inactive)
C=C1C(O)CC[C@]2(C)C1C1OC(C)(C)O[C@]13CC(=O)C(C)=C([C@H]1OC(C)(C)OC12)C3(C)C (stereo partly drawn) | > 100 µM (inactive) | > 100 µM (inactive) | > 100 µM (inactive) | > 100 µM (inactive) | > 100 µM (inactive) | > 100 µM (inactive) | > 100 µM (inactive) | > 100 µM (inactive) | > 100 µM | > 100 µM (inactive) | > 100 µM (inactive) | > 100 µM (inactive) | 27.4 µM (inactive) | > 100 µM (inactive) |  | > 100 µM (inactive) | > 100 µM (inactive) | > 100 µM (inactive) | > 100 µM (inactive) | > 100 µM (inactive)
Oc1cc(-c2ccc(F)cc2)nc2ncccc12 |  | 20.7 µM (inactive) | 38.2 µM (inactive) | 20.2 µM (inactive) | 42.7 µM (inactive) | 63.4 µM (inactive) |  | 34.4 µM (inactive) | 34.2 µM | 77.8 µM (inactive) | > 100 µM (inactive) |  |  | 98.2 µM (inactive) | 65.2 µM (inactive) | 74.6 µM (inactive) | 65.6 µM (inactive) |  | 70.5 µM (inactive) | > 100 µM (inactive)
Cc1ccc(S(=O)(=O)n2cc(-c3cc(C(F)(F)F)ccn3)c3cc(Br)ccc32)cc1 | 14.5 µM (inactive) |  | 74.6 µM (inactive) | 59.2 µM (inactive) | 49.1 µM (inactive) | 14.5 µM (inactive) | 17.9 µM (inactive) | 11.2 µM (inactive) | 21.9 µM |  | 20.7 µM (inactive) | > 100 µM (inactive) | 17.8 µM (inactive) | 11.8 µM (inactive) | 15 µM (inactive) | 17.9 µM (inactive) | 20.7 µM (inactive) | 54.6 µM (inactive) | 16.3 µM (inactive) | 
